The results in this text go back to patent publication US8211445B2, “PSM peptides as vaccine targets against methicillin-resistant Staphylococcus” (The United States of America, as represented by the …, priority 2007, dated 2012).

The test system of the assay is human neutrophils. Briefly: Priming of human neutrophils (surface expression of CD11b and gp91phox). Format: cell-based. As to conditions: PSM-mec vs PSMα3; in the range of other α-type PSMs and δ-toxin, higher than β-type PSMs. As to the method:
(§1) Priming of PMNs by synthetic PSMs was determined by increased surface expression of CD11b and gp91phox (granule exocytosis). PMNs were incubated with 10-10,000 ng/ml PSM, 10 μM fMLP, 10 ng/ml lipopolysaccharide, or 10 μg/ml lipoteichoic acid in 96-well tissue culture plates at 37° C. with rotation for 60 minutes. The assay was terminated by centrifuging cells at 4° C. for 8 minutes at 350×g. Cells were washed twice in cold Dulbecco's phosphate-buffered saline and stained with and isotype control antibody (BD Biosciences) or those specific for CD11b (mAb 44, BD Biosciences) or gp91phox (mAb 7D533). Propidium iodide (0.5 μg/ml) was used to identify dead cells. PMNs were analyzed on a FACSCalibur flow cytometer (Becton Dickinson) and dead cells were excluded with a single gate. Percent positive neutrophils were determined with a marker defined by the boundary of the isotype-matched control antibody.
as §1, with “10-10000” for “10-10,000”, “7D5).” for “7D533).”
Human neutrophil assays: Human neutrophil isolation, chemotaxis, calcium ion flux, priming, lysis assays, and measurement of IL-8 production were performed as described in Example 2.

fMEFVAKLFKFFKDLLGKFLGNN [PSMα3]: the “capacity to activate human neutrophils (surface exposure of gp91phox and CD11b)” value was “most potent”.
